# Results reported in patent US20220089575A1, “FARNESOID X RECEPTOR AGONISTS AND USES THEREOF” (Metacrine, Inc., priority 2017, published 2022).
# Biological target: T1, hFXR (Homo sapiens, UniProt Q96RI1)
# T1 construct: expressed in transfected cells; host or cells: CV-1 cells
# T1 sequence (Q96RI1 1-486): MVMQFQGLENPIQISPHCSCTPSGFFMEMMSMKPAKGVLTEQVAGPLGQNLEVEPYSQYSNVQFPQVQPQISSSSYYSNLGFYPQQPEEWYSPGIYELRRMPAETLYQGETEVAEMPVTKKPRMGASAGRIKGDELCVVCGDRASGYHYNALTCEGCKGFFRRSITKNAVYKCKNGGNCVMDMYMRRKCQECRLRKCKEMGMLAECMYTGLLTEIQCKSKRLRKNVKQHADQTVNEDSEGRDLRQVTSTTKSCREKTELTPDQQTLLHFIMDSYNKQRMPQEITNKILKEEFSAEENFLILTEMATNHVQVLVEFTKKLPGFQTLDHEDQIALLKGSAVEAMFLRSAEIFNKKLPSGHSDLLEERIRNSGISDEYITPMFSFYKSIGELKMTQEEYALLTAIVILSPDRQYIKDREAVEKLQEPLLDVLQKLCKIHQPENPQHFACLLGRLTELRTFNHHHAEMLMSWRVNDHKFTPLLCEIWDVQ
# T1 sequence (P19793 1-462 partner): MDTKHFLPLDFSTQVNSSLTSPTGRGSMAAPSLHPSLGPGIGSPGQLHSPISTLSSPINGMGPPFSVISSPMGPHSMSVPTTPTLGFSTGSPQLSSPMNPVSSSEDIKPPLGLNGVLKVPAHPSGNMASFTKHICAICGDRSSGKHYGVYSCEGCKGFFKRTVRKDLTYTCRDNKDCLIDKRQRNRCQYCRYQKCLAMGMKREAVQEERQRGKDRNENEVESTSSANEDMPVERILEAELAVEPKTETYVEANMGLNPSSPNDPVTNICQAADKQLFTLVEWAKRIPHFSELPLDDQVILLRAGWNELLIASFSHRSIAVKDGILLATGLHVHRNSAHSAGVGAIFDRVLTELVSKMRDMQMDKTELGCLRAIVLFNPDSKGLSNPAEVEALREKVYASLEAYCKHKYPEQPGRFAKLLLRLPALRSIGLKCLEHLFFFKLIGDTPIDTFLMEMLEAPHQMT
# Assay: In Vitro FXR Assay (TK): TK-ECRE-luc reporter in transfected CV-1 cells
# Format: cell-based
# Details: 18 hrs, luminescence, maximum efficacy of <25% of the Fexarmine control classified as '+'
# Outline: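 Luciferase read-out after 18 h compound exposure of CV-1 cells carrying transfected hFXR plus hRXR expression plasmids, TK-ECRE-luc reporter and pCMX-YFP. Cells cultured in charcoal-stripped FBS before transfection; compounds serially diluted in DMSO.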
row,SMILES,EC50
1,"CCOC(=O)C[C@H]1CC[C@H](C(=O)N(C[C@H]2CC[C@H](c3ccc(OC)c(C)n3)CC2)c2cc(-c3cnn(C4CC4)c3)ccn2)CC1 [Compound 18.18, Ethyl 2-(trans-4-((4-(1-cyclopropyl-1H-pyrazol-4-yl)pyridin-2-yl)((trans-4-(5-methoxy-6-methylpyridin-2-yl)cyclohexyl)methyl)carbamoyl)cyclohexyl)acetate]",≤ 250 nM
2,"COc1ccc([C@H]2CC[C@H](CN(c3cccc(-c4cnn(C5CC5)c4)c3)C(=O)[C@H]3CC[C@H](C(=O)OC)CC3)CC2)nc1C [Compound 18.19, trans-Methyl 4-((3-(1-cyclopropyl-1H-pyrazol-4-yl)phenyl)((trans-4-(5-methoxy-6-methylpyridin-2-yl)cyclohexyl)methyl)carbamoyl) cyclohexanecarboxylate]",≤ 250 nM
3,"CCOC(=O)C[C@H]1CC[C@H](C(=O)N(C[C@H]2CC[C@H](c3ccc(OC)c(C)n3)CC2)c2cc(-c3cnn(C(C)C)c3)ccn2)CC1 [Compound 18.20, Ethyl 2-(trans-4-((4-(1-isopropyl-1H-pyrazol-4-yl)pyridin-2-yl)((trans-4-(5-methoxy-6-methylpyridin-2-yl)cyclohexyl)methyl)carbamoyl)cyclohexyl)acetate]",≤ 250 nM
4,"CCOC(=O)C[C@H]1CC[C@H](C(=O)N(C[C@H]2CC[C@H](c3ccc(OC)c(C#N)c3)CC2)c2cc(-c3cnn(C(C)C)c3)ccn2)CC1 [Compound 18.21, Ethyl 2-(trans-4-(((trans-4-(3-cyano-4-methoxyphenyl)cyclohexyl)methyl)(4-(1-isopropyl-1H-pyrazol-4-yl)pyridin-2-yl)carbamoyl)cyclohexyl)acetate]",≤ 250 nM
5,"CCOC(=O)C[C@H]1CC[C@H](C(=O)N(C[C@H]2CC[C@H](c3ccc(OC)c(C#N)n3)CC2)c2cc(-c3cnn(C(C)C)c3)ccn2)CC1 [Compound 18.22, Ethyl 2-(trans-4-(((trans-4-(6-cyano-5-methoxypyridin-2-yl)cyclohexyl)methyl)(4-(1-isopropyl-1H-pyrazol-4-yl)pyridin-2-yl)carbamoyl)cyclohexyl) acetate]",≤ 250 nM
6,"COc1ccc([C@H]2CC[C@H](CN(c3cc(-c4coc(C5CC5)n4)ccn3)C(=O)[C@H]3CC[C@H](C(=O)OC)CC3)CC2)nc1C [Compound 18.23, trans-Methyl 4-((4-(2-cyclopropyloxazol-4-yl)pyridin-2-yl) ((trans-4-(5-methoxy-6-methylpyridin-2-yl)cyclohexyl)methyl)carbamoyl) cyclohexanecarboxylate]",≤ 250 nM
7,"COc1ccc([C@H]2CC[C@H](CN(c3cccc(-c4coc(C5CC5)n4)c3)C(=O)[C@H]3CC[C@H](C(=O)OC)CC3)CC2)nc1C#N [Compound 18.24, trans-Methyl 4-(((trans-4-(6-cyano-5-methoxypyridin-2-yl)cyclohexyl)methyl)(3-(2-cyclopropyloxazol-4-yl)phenyl)carbamoyl) cyclohexanecarboxylate]",≤ 250 nM
8,"COc1ccc([C@H]2CC[C@H](CN(c3cccc(-c4cnc(C5CC5)s4)c3)C(=O)[C@H]3CC[C@H](CC(=O)O)CC3)CC2)cc1C [Compound 19, 2-(trans-4-((3-(2-Cyclopropylthiazol-5-yl)phenyl)((trans-4-(4-methoxy-3-methylphenyl)cyclohexyl)methyl)carbamoyl)cyclohexyl)acetic acid]",≤ 250 nM
9,"COc1ccc([C@H]2CC[C@H](CN(c3cccc(-c4cnc(C5CC5)s4)c3)C(=O)[C@H]3CC[C@H](CC(=O)O)CC3)CC2)cc1C#N [Compound 20, 2-(trans-4-(((trans-4-(3-Cyano-4-methoxyphenyl)cyclohexyl)methyl)(3-(2-cyclopropylthiazol-5-yl)phenyl)carbamoyl)cyclohexyl)acetic acid]",≤ 250 nM

# Further lines, results first:
row,EC50,SMILES
1,≤ 250 nM,"COc1ccc([C@H]2CC[C@H](CN(c3cccc(-c4cnc(C5CC5)s4)c3)C(=O)[C@H]3CC[C@H](CC(=O)O)CC3)CC2)nc1C#N [Compound 20.01, 2-(trans-4-(((trans-4-(6-Cyano-5-methoxypyridin-2-yl)cyclohexyl)methyl)(3-(2-cyclopropylthiazol-5-yl)phenyl)carbamoyl)cyclohexyl) acetic acid]"
2,≤ 250 nM,"COc1ccc([C@H]2CC[C@H](CN(c3cc(-c4cnc(C5CC5)s4)ccn3)C(=O)[C@H]3CC[C@H](CC(=O)O)CC3)CC2)cc1C [Compound 20.02, 2-(trans-4-((4-(2-Cyclopropylthiazol-5-yl)pyridin-2-yl)((trans-4-(4-methoxy-3-methylphenyl)cyclohexyl)methyl)carbamoyl)cyclohexyl)acetic acid]"
3,≤ 250 nM,"COc1ccc([C@H]2CC[C@H](CN(c3cccc(-c4cnc(C5CC5)s4)c3)C(=O)[C@H]3CC[C@H](CC(=O)O)CC3)CC2)nc1C [Compound 20.03, 2-(trans-4-((3-(2-Cyclopropylthiazol-5-yl)phenyl)((trans-4-(5-methoxy-6-methylpyridin-2-yl)cyclohexyl)methyl)carbamoyl)cyclohexyl)acetic acid]"
4,≤ 250 nM,"COc1ccc([C@H]2CC[C@H](CN(c3cc(-c4cnc(C5CC5)s4)ccn3)C(=O)[C@H]3CC[C@H](CC(=O)O)CC3)CC2)nc1C [Compound 20.04, 2-(trans-4-((4-(2-Cyclopropylthiazol-5-yl)pyridin-2-yl)((trans-4-(5-methoxy-6-methylpyridin-2-yl)cyclohexyl)methyl)carbamoyl)cyclohexyl)acetic acid]"
5,≤ 250 nM,"COc1ccc([C@H]2CC[C@H](CN(c3cc(-c4cnc(C5CC5)s4)ccn3)C(=O)[C@H]3CC[C@H](CC(=O)O)CC3)CC2)cc1C#N [Compound 20.05, 2-(trans-4-(((trans-4-(3-Cyano-4-methoxyphenyl)cyclohexyl)methyl)(4-(2-cyclopropylthiazol-5-yl)pyridin-2-yl)carbamoyl)cyclohexyl)acetic acid]"
6,≤ 250 nM,"CN(C)c1ccc([C@H]2CC[C@H](CN(c3cccc(-c4cnc(C5CC5)s4)c3)C(=O)[C@H]3CC[C@H](CC(=O)O)CC3)CC2)cn1 [Compound 20.06, 2-(trans-4-((3-(2-Cyclopropylthiazol-5-yl)phenyl)((trans-4-(6-(dimethylamino)pyridin-3-yl)cyclohexyl)methyl)carbamoyl)cyclohexyl)acetic acid]"
7,≤ 250 nM,"COc1ccc([C@H]2CC[C@H](CN(c3cccc(-c4cnc(C(C)C)s4)c3)C(=O)[C@H]3CC[C@H](CC(=O)O)CC3)CC2)nc1C [Compound 20.07, 2-(trans-4-((3-(2-Isopropylthiazol-5-yl)phenyl)((trans-4-(5-methoxy-6-methylpyridin-2-yl)cyclohexyl)methyl)carbamoyl)cyclohexyl) acetic acid]"
8,≤ 250 nM,"COc1ccc(C23CCC(CN(c4cc(-c5cnn(C6CC6)c5)ccn4)C(=O)[C@H]4CC[C@H](CC(=O)O)CC4)(CC2)CC3)cc1C [Compound 20.08, trans-2-(4-((4-(1-Cyclopropyl-1H-pyrazol-4-yl)pyridin-2-yl)((4-(4-methoxy-3-methylphenyl)bicyclo [2.2.2]octan-1-yl)methyl)carbamoyl)cyclohexyl)acetic acid]"
9,≤ 250 nM,"COc1ccc([C@H]2CC[C@H](CN(c3cccc(-c4cnn(C5CC5)c4)c3)C(=O)[C@H]3CC[C@H](CC(=O)O)CC3)CC2)cc1C [Compound 20.09, 2-(trans-4-((3-(1-Cyclopropyl-1H-pyrazol-4-yl)phenyl)((trans-4-(4-methoxy-3-methylphenyl)cyclohexyl)methyl)carbamoyl)cyclohexyl)acetic acid]"
10,≤ 250 nM,"COc1ccc([C@H]2CC[C@H](CN(c3cc(-c4cnn(C5CC5)c4)ccn3)C(=O)[C@H]3CC[C@H](CC(=O)O)CC3)CC2)cc1C [Compound 20.10, 2-(trans-4-((4-(1-Cyclopropyl-1H-pyrazol-4-yl)pyridin-2-yl)((trans-4-(4-methoxy-3-methylphenyl)cyclohexyl)methyl)carbamoyl)cyclohexyl)acetic acid]"
11,≤ 250 nM,"COc1ccc([C@H]2CC[C@H](CN(c3cccc(-c4cnn(C5CC5)c4)c3)C(=O)[C@H]3CC[C@H](CC(=O)O)CC3)CC2)cc1C#N [Compound 20.11, 2-(trans-4-(((trans-4-(3-Cyano-4-methoxyphenyl)cyclohexyl)methyl)(3-(1-cyclopropyl-1H-pyrazol-4-yl)phenyl)carbamoyl)cyclohexyl)acetic acid]"
12,≤ 250 nM,"CN(C)c1ccc([C@H]2CC[C@H](CN(c3cccc(-c4cnn(C5CC5)c4)c3)C(=O)[C@H]3CC[C@H](CC(=O)O)CC3)CC2)cn1 [Compound 20.12, 2-(trans-4-((3-(1-Cyclopropyl-1H-pyrazol-4-yl)phenyl)((trans-4-(6-(dimethylamino)pyridin-3-yl)cyclohexyl)methyl)carbamoyl)cyclohexyl)acetic acid]"
